Measured values published in patent US10000452B1, “Quinolone-based compounds, formulations, and uses thereof” (University of South Florida, priority 2016, dated 2018).
Converted amounts (≈) assume the structure as drawn. “And” between values parts separate entries of the source, which are not always exact repeats. Equal values may be shown once. Read-outs that look alike come from different tables or passages of the source.

How the values were obtained:
[1] = system: malarial strain W2 (pyrimethamine and chloroquine-resistant); test: in vitro antimalarial activity against multidrug resistant strain W2; type: cell-based, P. falciparum; details: Plasmodium falciparum
[2] = lipophilicity log D at pH 7.4; type: physicochemical; details: octanol/water
Summary of the method: (§1)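 Aqueous solubility and log D (pH 7.4) determined by LC/MS-based assays; solubility examined at more than one pH.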

[3] = system: P. berghei sporozoites expressing luciferase; test: in vitro liver stage activity, luciferase sporozoites infecting HEPG2 hepatoma cells; type: cell-based; details: Plasmodium berghei
[4] = system: P. berghei sporozoite infected mice; test: in vivo efficacy against liver stages, bioluminescence imaging; details: for % Inhibition Day 9 PI: single dose 1 hour after infection; for protection by bioluminescence imaging: 44 h, day 6, 9 and 13 PI, 25, 50, 100 mg/kg oral or subcutaneous, result in words
Description: Animals (n=5 per group) received a single dose by gavage 1 hour after inoculation with sporozoites. Representative images taken at 44 h, day 6, day 9, and day 13 after infection are shown. At 44 h, bioluminescent signal was detected in control untreated animals, with the highest intensity noted in the area overlaying the liver, consistent with the presence of liver-stage parasites.
At 44 h PI, day 6 PI, day 9 PI, and day 13 PI, compound efficacy was determined by bioluminescence imaging via injection of D-luciferin. Both compounds were administered orally or subcutaneously at increasing doses of 25 mg/kg, 50 mg/kg, and 100 mg/kg in PEG 400. […] Progression of parasitemia was monitored up to 30 days after infection (Table 8).

[5] = system: Pb-infected mice; test: in vivo efficacy scouting assay against blood stages; parameters: species or system P. berghei; mice; details: for inhibition in vivo at 50 mg/kg: Plasmodium berghei, 144 h, read-out: % Inhibition Day 6 PI; for activities in these scout assays: result in words
Description: The screening involved a single oral 50 mg/kg dose 1 day post infection (PI) and an assessment of parasitemia on days 3 PI and 6 PI (Table 6).
The screening was performed by treating two infected mice with a single 50 mg/kg oral dose of test compound suspended in PEG400 on day 1 postexposure (PE) followed by assessing parasitemia on days 3 and 6 PE.

[6] = system: malarial strain TM90-C2B (mefloquine, chloroquine, atovaquone, and pyrimethamine-resistant); test: microbe, parasite or virus in culture; type: cell-based, P. falciparum; details: for EC50: Plasmodium falciparum; for RI: RI = EC50 TM90-C2B/EC50 W2
From the text: Ideally, the RI of a compound should lie between 0.3 and 3.0 in order to avoid rapidly inducing resistance in the parasite. […]

[7] = aqueous solubility (LC/MS- or HPLC-based assay); type: physicochemical
Summary of the method: as §1

[8] = system: P. berghei-GFP parasites; test: modified Thompson test; type: in vivo, P. berghei; mice; details: for No. of Cures / % Inhibition Day 6 PI: 10 mg/kg oral on days 3, 4 and 5 PI; for No. of Cures: survival to day 30 PI with parasitemia <1%; for % Inhibition Day 6 PI: vs untreated control animals
Description: Mice were infected with 1×10^6 P. berghei-GFP parasites and compounds were dosed orally on days 3, 4 and 5 PI with a dose of 10 mg/kg of compound suspended or dissolved in HEC/Tween or PEG 400. Parasitemia was observed by flow cytometry on days 3, 6, 9, 13, 21, and 30 PI. Compounds with animal survival up to day 30 PI and parasitemia levels of less than 1% on day 30 PI were considered to be cures. Lastly, animals with more than 40% parasitemia levels were euthanized.
On days 3, 6, 9, 13, 21, and 30 PE, parasitemia was monitored by Giemsa-stained blood smears. Both compounds were evaluated by the reduction of parasitemia on day 6 PE and the survival up to day 30 PE.

[9] = system: J774 mammalian cells; test: cytotoxicity to J774 cells; type: cell-based; details: Mus musculus
Description: This allowed a simplified method for comparing the different assays being simultaneously run. Additionally, each compound was also tested for cytotoxicity using mammalian J774 cell lines in a 96-well plate format.^12-14, 16

[10] = single oral 50 mg/kg dose 1 day PI, vs untreated animals
[11] = TM90, read-out: EC50 TM90-C2B (nM)
[12] = aqueous medium, pH 2, simulated gastric fluid, pH 2.0, read-out: Solubility pH 2.0
[13] = aqueous medium, pH 6.5, aqueous buffer, pH 6.5, read-out: Solubility pH 6.5
[14] = single oral 50 mg/kg dose 1 day PI
[15] = aqueous solution, pH 2, simulated gastric fluid, pH 2.0, read-out: Solubility pH 2.0
[16] = aqueous solution, pH 6.5, aqueous buffer, pH 6.5, read-out: Solubility pH 6.5
[17] = aqueous solution (buffer not named), pH 2, simulated gastric fluid, pH 2.0, read-out: Solubility pH 2.0
[18] = aqueous solution (buffer not named), pH 6.5, aqueous buffer, pH 6.5, read-out: Solubility pH 6.5
[19] = Example 2: two mice, single 50 mg/kg oral dose in PEG400 on day 1 PE

| SMILES | EC50 ([1]; read-out: EC50 W2 (nM)) [nM] | chromatographic logD [2] | EC50 ([3]; HEPG2 cells) [pM] | No. of Cures ([4]; 50 mg/kg oral) | EC50 [6, 11] [nM] | solubility [7, 12] [µM] | solubility [7, 13] [µM] | No. of Cures [8] | % Inhibition Day 6 PI [5, 10] | EC50 ([9]; J774, read-out: EC50 J774 (μM)) [µM] | RI [6] | other results |
| --- | --- | --- | --- | --- | --- | --- | --- | --- | --- | --- | --- | --- |
| COC(=O)c1c[nH]c2cc(CN3CCN(Cc4ccc(OC)cc4)CC3)ccc2c1=O [Compound 8l, Methyl 7-((4-(4-methoxybenzyl)piperazin-1-yl)methyl)-4-oxo-1,4-dihydroquinoline-3-carboxylate] | 2.5 | 1.66 | 83400 | 0/5 | 799 | ≥ 80 | ≥ 80 |  |  |  |  | No. of Cures ([4]; 25 mg/kg oral): 0/5; % Inhibition Day 9 PI ([4]; 25 mg/kg oral): 49.1%; No. of Cures ([4]; 50 mg/kg subcutaneous): 0/5; % Inhibition Day 9 PI ([4]; 50 mg/kg subcutaneous): 20.1%; No. of Cures ([4]; 100 mg/kg oral): one of five and 1/5; protection by bioluminescence imaging [4]: full protection at all time points only at an oral dose of 100 mg/kg; inhibition in vivo at 50 mg/kg [5, 10]: ~40% |
| COC(=O)c1c[nH]c2cc(CN3CCN(c4ccc(C(F)(F)F)cc4)CC3)c(C)cc2c1=O [Compound 8v, Methyl 6-methyl-4-oxo-7-((4-(4-(trifluoromethyl)phenyl)piperazin-1-yl)methyl)-1,4-dihydroquinoline-3-carboxylate] | 0.066 | 3.73 |  |  | 101 |  |  | 3 of the 5 and 3/5 | completely inhibited parasite growth | > 20 | 1530 | EC50 ([1]; read-out: EC50 W2): 0.066 nM; inhibition in vivo at 50 mg/kg ([5]; po): > 85%; activities in these scout assays [5, 14]: excellent activities; % Inhibition Day 3 PI [5, 10]: full inhibition; solubility [7, 15]: ≥ 80 µM; solubility [7, 16]: 1 to 19.9 µM (≈ 0.459 to 9.14 µg/mL) |
| COC(=O)c1c[nH]c2cc(CN3CCN(c4ccccc4)CC3)ccc2c1=O [Compound 8j, Methyl 4-oxo-7-((4-phenylpiperazin-1-yl)methyl)-1,4-dihydroquinoline-3-carboxylate] | 1.25 | 0.86 | 4740 | 2/5 | 483 | ≥ 80 | ≥ 80 |  |  |  |  | No. of Cures ([4]; 25 mg/kg oral): 2/5; % Inhibition Day 9 PI ([4]; 25 mg/kg oral): 65.3%; % Inhibition Day 9 PI ([4]; 50 mg/kg oral): 85.1%; No. of Cures ([4]; 50 mg/kg subcutaneous): 3/5; % Inhibition Day 9 PI ([4]; 50 mg/kg subcutaneous): >99.0%; No. of Cures ([4]; 100 mg/kg oral): 5/5; % Inhibition Day 9 PI ([4]; 100 mg/kg oral): >99.0%; protection by bioluminescence imaging [4]: no luminescence was observed; animals cured (survival curves) ([4]; over all doses tested, 25-100 mg/kg): two or more out of five |
| COc1cc(NC(C)CCCN)c2ncccc2c1 (stereo not drawn) [Primaquine, reference compound] |  |  |  | 2/5 |  |  |  |  |  |  |  | % Inhibition Day 9 PI ([4]; 50 mg/kg oral): >99.0% |
| O=C1C(O)=C([C@H]2CC[C@H](c3ccc(Cl)cc3)CC2)C(=O)c2ccccc21 [Atovaquone, atovaquone, reference compound] |  |  |  |  |  |  |  | 5/5 |  |  |  | EC50 ([9]; J774, cytotoxicity, 96 well plate format, read-out: EC50 J774): 28.3 µM; EC50 ([6]; TM90, read-out: EC50 TM90-C2B): 18400 nM |
| Cc1[nH]c2cc(CN3CCN(c4ccc(F)cc4)CC3)ccc2c(=O)c1Cl [Compound 8ao, 3-Chloro-7-((4-(4-fluorophenyl)piperazin-1-yl)methyl)-2-methylquinolin-4(1H)-one] | 38.5 | 2.73 |  |  | 52.1 |  |  | 0/5 |  | > 20 |  | % Inhibition Day 6 PI [8]: low inhibition; solubility [7, 17]: ≥ 80 µM; solubility [7, 18]: 1 to 19.9 µM (≈ 0.386 to 7.68 µg/mL) |
| O=c1c(Br)c[nH]c2cc(CN3CCN(c4ccc(F)cc4)CC3)ccc12 [Compound 8ak, 3-Bromo-7-((4-(4-fluorophenyl)piperazin-1-yl)methyl) quinolin-4(1H)-one] | 812 | 2.91 | 858 |  | 2430 |  |  | 0/5 |  | > 20 |  | % Inhibition Day 6 PI [8]: low inhibition; solubility [7, 17]: ≥ 80 µM; solubility [7, 18]: 20 to 39.9 µM (≈ 8.33 to 16.6 µg/mL) |
| CCCCc1cc2c(=O)c(C(=O)OC)c[nH]c2cc1OCCOc1ccccc1 [Compound 6b, Methyl 6-Butyl-4-oxo-7-(2-phenoxyethoxy)-1,4-dihydroquinoline-3-carboxylate, reference compound] |  |  |  |  | 7.89 |  |  |  |  |  |  | EC50 ([1]; read-out: EC50 W2): 0.039 nM; day mice were sacrificed ([8]; Example 2: 10 mg/kg oral days 3, 4, 5, controls sacrificed day 13): 13; % inhibition on day 6 PE ([8]; Example 2: 10 mg/kg oral days 3, 4, 5 in HEC/Tween, Giemsa-stained smears): no inhibition; EC50 ([3]; HepG2, text values printed in pM): 52 pM; % inhibition on day 3 PE [5, 19]: 76.9%; % inhibition on day 6 PE [5, 19]: 49% |
| COC(=O)c1c[nH]c2cc(CN3CCN(c4ccc(C(F)(F)F)cc4)CC3)ccc2c1=O [Compound 8p, Methyl 4-oxo-7-((4-(4-(trifluoromethyl)phenyl)piperazin-1-yl)methyl)-1,4-dihydroquinoline-3-carboxylate] | 0.315 | 3.23 | 15600 |  | 122 |  |  |  | completely inhibited parasite growth | 10.7 | 387 | inhibition in vivo at 50 mg/kg ([5]; po): > 85%; activities in these scout assays [5, 14]: excellent activities; % Inhibition Day 3 PI [5, 10]: full inhibition; solubility [7, 15]: ≥ 80 µM; solubility [7, 16]: 1 to 19.9 µM (≈ 0.445 to 8.86 µg/mL) |
| COC(=O)c1c[nH]c2cc(CN3CCN(c4ccccc4)CC3)c(C)cc2c1=O [Compound 8q, Methyl 6-methyl-4-oxo-7-((4-phenylpiperazin-1-yl)methyl)-1,4-dihydroquinoline-3-carboxylate] | 0.435 | 2.81 | 6920 |  | 147 | ≥ 80 | 60 to 79.9 (≈ 23.5 to 31.3 µg/mL) |  | little to moderate protection | 11.9 | 338 |  |
